From patent publication US8865894B2, “Oxazolidin-2-one compounds and uses thereof” (Novartis AG, priority 2012, dated 2014)

Experiments:
[1] = target: T1, human PI3Kalpha p110 catalytic subunit (Rat-1 pBABEpuro Myr-HA-hp110alpha) (Homo sapiens, UniProt P42336); assay: Cellular assay PI3Kalpha (p-Akt(S473) SureFire, Rat-1_PI3Kalpha cells); type: cell-based; conditions: 1 h compound treatment, read-out: Rat1-PI3Ka/ IC50
T1 construct: Myr (myristoylation signal) (N); HA (N); expressed in transfected cells; host or cells: Rat-1
From the text: AlphaScreen (Amplified Luminescent Proximity Homogeneous Assay, ALPHA, Perkin Elmer) is a non-radioactive bead-based proximity assay technology to study biomolecular interactions in a homogenous microtiter plate format. The brand name SureFire denotes AlphaScreen assays that are adapted to quantify the phosphorylation of endogenous cellular proteins in cell lysates, by using matched antibody pairs, which consist of an anti-phospho-kinase and an anti-kinase antibody. The assay allows characterization of kinase signaling in cells as well as measurement of kinase inhibitor effects. The AlphaScreen technology provides several advantages over standard assay techniques such as ELISA, as it avoids time-consuming washing procedures and reduces plate handling. Furthermore, it is miniaturizable at least to a 384-well format and provides sensitivity down to the femtomolar range, dependent on the affinity of the antibodies included in the individual AlphaScreen SureFire assay kit. High sensitivity is reached by an intrinsic amplification mechanism, which involves production of singlet oxygen molecules. SureFire assay kits are commercially available for specific targets and include pairs of validated antibodies (PerkinElmer). This report describes common procedures applied for AlphaScreen SureFire assays and respective semi-automated steps for routine kinase inhibitor profiling in cell-based assays.
The Rat-1 cell lines stably overexpressing activated PI3K class I isoforms Rat-1 pBABEpuro Myr-HA-hp110 delta (Rat-1_PI3Kdelta) and Rat-1 pBABEpuro Myr-HA-hp110alpha (Rat-1_PI3Kalpha) and Rat-1 pBABEpuro Myr-HA-hp110 beta (Rat-1_PI3beta) were prepared as described (Maira S M, Stauffer F, Brueggen J, Furet P, Schnell C, Fritsch C, Brachmann S, Chène P, de Pover A, Schoemaker K, Fabbro D, Gabriel D, Simonen M, Murphy L, Finan P, Sellers W, García-Echeverría C (2008), Mol Cancer Ther. 7:1851-63 and Maira S M, Pecchi S, Brueggen J, Huh K, Schnell C, Fritsch C, Nagel T, Wiesmann M, Brachmann S, Dorsch M, Chène P, Schoemaker K, De Pover A, Menezes D, Fabbro D, Sellers W, García-Echeverría C, Voliva C F (2011), Mol. Cancer Ther., accepted). All cell lines were cultivated in complete growth medium (DMEM high glucose, 10% (v/v) fetal bovine serum, 1% (v/v) MEM NEAA, 10 mM HEPES, 2 mM L-glutamine, puromycin (10 μg/mL for Rat-1_PI3Kdelta and Rat-1_PI3Kalpha, 4 ug/mL for Rat-1_PI3beta), 1% (v/v) Pen/Strep) to 90% confluency at 37° C./5% CO2/90% humidity in a humidified CO2 incubator and were split twice a week.
The following materials were used for p-AKT(S473) detection in Rat-1 cell lysates: Dulbecco's modified Eagle's medium (DMEM) high glucose (Gibco Invitrogen, Basel, Switzerland, Cat. No. 41965), Heat Inactivated Fetal Bovine Serum, Qualified (HI FBS; Gibco Invitrogen, Basel, Switzerland, Lot. No. 16140), MEM non essential amino acids (NEAA; Gibco Invitrogen, Basel, Switzerland, Cat. No. 11140), HEPES (Gibco Invitrogen, Basel, Switzerland, Cat. No. 15630), Penicillin/Streptomycin (Pen/Strep, 100×; Gibco Invitrogen, Basel, Switzerland, Cat. No. 15140-122), L-Glutamine (Gibco Invitrogen, Basel, Switzerland, Cat. No. 25030), Puromycin (Sigma Aldrich, Buchs, Switzerland, Cat. No. P9620), DMSO (MERCK, Dietikon, Switzerland, Cat. No. 8.02912.2500), H2O, MilliQ-H2O unless otherwise stated (MILLIPORE QGARDOOR1, Millipore, Zug, Switzerland), Bovine serum albumine (BSA; Sigma Aldrich, Buchs, Switzerland Cat. No. A8412), SureFire p-Akt 1/2 (Ser473) Assay Kit (PerkinElmer, Schwerzenbach, Switzerland, Cat. No. TGRAS50K).
The p-Akt(S473) SureFire assay measures the phosphorylation of endogenous cellular Akt 1/2 at Ser473 in cell lysates. Using Rat-1 cells stably expressing myr-HA-tagged versions of the human PI3Kdelta, PI3Kalpha, or PI3Kbeta p110 catalytic subunit isoforms, the assay was developed as a two-plate protocol in a 384-well format.

T1 sequence (P42336 whole entry): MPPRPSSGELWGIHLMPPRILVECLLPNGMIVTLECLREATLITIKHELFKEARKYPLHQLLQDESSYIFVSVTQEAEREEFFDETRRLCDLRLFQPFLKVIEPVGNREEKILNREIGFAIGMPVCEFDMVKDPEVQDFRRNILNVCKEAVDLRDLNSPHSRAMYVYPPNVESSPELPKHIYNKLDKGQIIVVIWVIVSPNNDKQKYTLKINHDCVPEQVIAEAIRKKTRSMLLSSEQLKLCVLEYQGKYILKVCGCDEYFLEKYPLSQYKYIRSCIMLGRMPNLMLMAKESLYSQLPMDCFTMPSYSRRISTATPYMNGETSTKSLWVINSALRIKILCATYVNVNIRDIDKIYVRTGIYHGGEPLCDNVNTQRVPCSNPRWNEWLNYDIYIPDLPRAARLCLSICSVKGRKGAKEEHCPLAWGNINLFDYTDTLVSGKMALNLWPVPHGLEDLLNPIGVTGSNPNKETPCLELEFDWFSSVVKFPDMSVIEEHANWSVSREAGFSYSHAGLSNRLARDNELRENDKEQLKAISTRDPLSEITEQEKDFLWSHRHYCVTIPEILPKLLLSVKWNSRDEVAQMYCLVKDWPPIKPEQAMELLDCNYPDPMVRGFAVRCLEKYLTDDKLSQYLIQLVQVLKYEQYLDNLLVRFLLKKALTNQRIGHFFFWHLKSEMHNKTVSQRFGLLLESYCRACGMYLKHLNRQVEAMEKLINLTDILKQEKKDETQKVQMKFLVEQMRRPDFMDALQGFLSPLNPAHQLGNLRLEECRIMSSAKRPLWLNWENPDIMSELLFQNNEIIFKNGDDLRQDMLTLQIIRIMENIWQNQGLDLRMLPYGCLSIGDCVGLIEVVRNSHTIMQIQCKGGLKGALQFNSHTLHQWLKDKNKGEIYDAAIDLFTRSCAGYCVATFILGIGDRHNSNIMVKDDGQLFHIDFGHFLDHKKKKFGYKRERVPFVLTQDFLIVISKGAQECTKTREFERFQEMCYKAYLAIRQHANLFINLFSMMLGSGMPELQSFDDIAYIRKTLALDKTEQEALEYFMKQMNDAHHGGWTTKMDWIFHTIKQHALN
T1 sequence (Q63787 whole entry partner): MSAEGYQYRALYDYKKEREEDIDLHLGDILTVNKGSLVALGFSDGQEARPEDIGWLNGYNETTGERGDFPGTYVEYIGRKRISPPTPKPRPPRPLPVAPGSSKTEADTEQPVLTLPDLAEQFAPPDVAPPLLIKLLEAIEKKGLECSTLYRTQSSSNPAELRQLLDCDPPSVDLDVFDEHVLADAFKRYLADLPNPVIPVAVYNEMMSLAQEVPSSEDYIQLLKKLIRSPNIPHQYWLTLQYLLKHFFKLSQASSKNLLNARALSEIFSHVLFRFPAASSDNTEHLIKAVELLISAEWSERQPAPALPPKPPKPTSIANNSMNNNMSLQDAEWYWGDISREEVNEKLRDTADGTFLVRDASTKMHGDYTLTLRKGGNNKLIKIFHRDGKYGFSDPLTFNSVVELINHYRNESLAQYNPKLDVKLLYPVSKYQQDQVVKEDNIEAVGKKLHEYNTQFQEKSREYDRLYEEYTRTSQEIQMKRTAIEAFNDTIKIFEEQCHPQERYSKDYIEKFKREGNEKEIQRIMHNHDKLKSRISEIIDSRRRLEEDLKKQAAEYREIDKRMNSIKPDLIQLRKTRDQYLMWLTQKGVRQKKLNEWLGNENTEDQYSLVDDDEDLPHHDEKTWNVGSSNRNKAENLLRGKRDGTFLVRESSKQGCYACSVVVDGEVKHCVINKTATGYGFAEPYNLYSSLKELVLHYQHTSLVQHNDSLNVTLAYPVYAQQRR

| IC50 [1] | melting point | SMILES |
| --- | --- | --- |
| 158 nM |  | Nc1ncc(-c2cc(N3C[C@H](CO)OC3=O)nc(N3CCOCC3)n2)c(C(F)(F)F)n1 [Example 20, (R)-3-(2′-Amino-2-morpholin-4-yl-4′-trifluoromethyl-[4,5′]bipyrimidinyl-6-yl)-5-hydroxymethyl-oxazolidin-2-one] |
| 61 nM | 217.7 °C | C[C@H]1OC(=O)N(c2cc(-c3cnc(N)nc3C(F)(F)F)nc(N3CCOC[C@@H]3C)n2)[C@H]1CO [Example 10, (4S,5R)-3-[2′-Amino-2-((S)-3-methyl-morpholin-4-yl)-4′-trifluoromethyl-[4,5′]bipyrimidinyl-6-yl]-4-hydroxymethyl-5-methyl-oxazolidin-2-one] |
